Results: patent publication US20250289813A1, “CDK INHIBITORS, PHARMACEUTICAL COMPOSITIONS, AND THERAPEUTIC APPLICATIONS” (ONQUALITY PHARMACEUTICALS CHINA LTD., priority 2022, published 2025)

What was measured:
[1] = target: CDK4/cyclin D1 (Homo sapiens (Human), UniProt P11802); test: CDK4 Caliper Mobility Shift assay; type: biochemical
Description: (§1) A Caliper Mobility Shift assay was used to determine the inhibitory activities of a compound against CDK4/cyclin D1 and CDK6/cyclin D1 in their respective kinase buffers (CDK4: 20 mM HEPES, pH 7.5, and 0.01% Triton X-100; CDK6: 50 mM HEPES, pH 7.5, and 0.0015% BRIJ-35). The CDK4/cyclin D1 and CDK6/cyclin D1 were obtained from PROQINASE and CARNA, respectively. A FAM-labeled peptide was obtained from GL.
(§2) The compound at predetermined concentrations was pre-incubated with CDK4/cyclin D1 or CDK6/cyclin D1 in a 384-well microplate at room temperature for 10 min. The FAM-labeled peptide and ATP were subsequently added to initiate the kinase reactions. The final enzyme concentrations were 15 nM for CDK4 and 7.5 nM for CDK6. The final ATP concentrations were […] for CDK4 and […] for CDK6. The microplate was allowed to incubate at 28° C. The kinase reactions were stopped by adding a stop buffer (100 mM HEPES, pH 7.5, 0.012% BRIJ-35, 0.2% Coating Reagent 3 (Caliper Life Sciences), and […]). Conversion data were recorded and utilized to calculate the percent inhibition values for each compound and an IC50 value was then determined. The results are summarized in Table 1, where the symbol “***” represents a value no greater than 200 nM, the symbol “**” represents a value greater than 200 nM but no greater than 500 nM, and the symbol “*” represents a value greater than 500 nM.

[2] = system: MCF-7 human breast cancer cells; test: CELLTITER-GLO luminescent cell viability assay; type: cell-based; details: MCF7, 192 h, MCF-7 cells, 8 days, read-out: EC50 (Effect on Cell Viability)
Description: A CELLTITER-GLO luminescent cell viability assay was carried out using MCF-7 human breast cancer cells under the normal growth condition. The MCF-7 human breast cancer cells were grown at 37° C. in a 5% CO2 humidified incubator in EMEM, supplemented 10% FBS, 0.01 mg/mL bovine insulin. The cells were seeded at a 3,000 cells/well in a 96-well tissue culture plate. The cells were allowed to adhere overnight in the incubator. A compound (5 μL) in a medium at a predetermined concentration. After the cells was incubated at 37° C. for 8 days, a CELLTITER-GLO detection solution (100 μL) was added. The cells were mixed on an orbital shaker for 5 min and then incubated for additional 10 min. The plate was read with an ENVISION reader. The results are summarized in Table 2, where the symbol “+++” represents a value no greater than 1 μM, the symbol “++” represents a value greater than 1 μM but no greater than 10 μM, and the symbol “+” represents a value greater than 10 μM.

[3] = target: CDK6/cyclin D1 (Homo sapiens (Human), UniProt Q00534); test: CDK6 Caliper Mobility Shift assay; type: biochemical
Description: as §1, §2

Chain of CDK4/cyclin D1 (P11802 whole entry): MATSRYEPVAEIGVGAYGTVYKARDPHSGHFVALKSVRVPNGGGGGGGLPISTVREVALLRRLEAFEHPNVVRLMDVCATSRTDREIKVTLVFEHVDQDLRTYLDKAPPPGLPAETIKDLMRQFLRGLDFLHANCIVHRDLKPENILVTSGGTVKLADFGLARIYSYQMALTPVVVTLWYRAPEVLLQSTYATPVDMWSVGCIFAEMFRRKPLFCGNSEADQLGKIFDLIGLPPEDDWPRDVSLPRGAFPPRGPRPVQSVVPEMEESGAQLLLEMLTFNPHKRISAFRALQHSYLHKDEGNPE
Chain of CDK4/cyclin D1 (P24385 whole entry partner): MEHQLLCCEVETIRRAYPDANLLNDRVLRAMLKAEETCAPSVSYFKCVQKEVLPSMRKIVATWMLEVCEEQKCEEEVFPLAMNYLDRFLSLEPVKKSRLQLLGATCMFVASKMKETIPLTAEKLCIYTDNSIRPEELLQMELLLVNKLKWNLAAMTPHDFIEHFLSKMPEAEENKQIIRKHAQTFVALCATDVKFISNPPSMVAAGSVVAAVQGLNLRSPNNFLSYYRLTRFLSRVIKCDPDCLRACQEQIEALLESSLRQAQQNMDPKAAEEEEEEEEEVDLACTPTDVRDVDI
Chain of CDK6/cyclin D1 (Q00534 whole entry): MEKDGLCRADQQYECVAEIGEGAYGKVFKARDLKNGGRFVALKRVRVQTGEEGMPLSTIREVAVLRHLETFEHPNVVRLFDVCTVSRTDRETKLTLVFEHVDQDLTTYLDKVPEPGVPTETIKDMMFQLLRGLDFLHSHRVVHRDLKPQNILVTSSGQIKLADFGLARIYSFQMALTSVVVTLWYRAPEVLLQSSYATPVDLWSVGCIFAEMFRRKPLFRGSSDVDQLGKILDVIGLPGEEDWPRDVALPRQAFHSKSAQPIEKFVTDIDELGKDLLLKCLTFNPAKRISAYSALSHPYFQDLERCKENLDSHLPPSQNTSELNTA
Chain of CDK6/cyclin D1 (P24385 whole entry partner): as the sequence (P24385 whole entry partner) above

| SMILES | IC50 [1] | EC50 [2] | IC50 [3] |
| --- | --- | --- | --- |
| CC(=O)c1c(C)c2cnc(Nc3ccc(N4CCN(S(=O)(=O)NC(=O)OCCNC(=O)[C@@H](N)C(C)C)CC4)cn3)nc2n(C2CCCC2)c1=O [Compound A14, (S)-2-(2-Amino-3-methylbutanamido)ethyl ((4-(6-((6-acetyl-8-cyclopentyl-5-methyl-7-oxo-7,8-dihydropyrido[2,3-d]pyrimidin-2-yl)amino)pyridin-3-yl)piperazin-1-yl)sulfonyl)carbamate] | ≤ 200 nM | > 10000 nM | ≤ 200 nM |
| CC(=O)c1c(C)c2cnc(Nc3ccc(N4CCN(S(=O)(=O)OCOC(=O)c5ccccc5)CC4)cn3)nc2n(C2CCCC2)c1=O [Compound B3, (((4-(6-((6-Acetyl-8-cyclopentyl-5-methyl-7-oxo-7,8-dihydropyrido[2,3-d]-pyrimidin-2-yl)amino)pyridin-3-yl)piperazin-1-yl)sulfonyl)oxy)methyl benzoate] | ≤ 200 nM | 1000 to 10000 nM | ≤ 200 nM |
| CCOC(=O)NS(=O)(=O)N1CCN(c2ccc(Nc3ncc4c(C)c(C(C)=O)c(=O)n(C5CCCC5)c4n3)nc2)CC1 [Compound A25, Ethyl ((4-(6-((6-acetyl-8-cyclopentyl-5-methyl-7-oxo-7,8-dihydropyrido[2,3-d]-pyrimidin-2-yl)amino)pyridin-3-yl)piperazin-1-yl)sulfonyl)carbamate] | 200 to 500 nM | 1000 to 10000 nM | ≤ 200 nM |
| CC(=O)c1c(C)c2cnc(Nc3ccc(N4CCN(S(=O)(=O)NC(=O)C(N)C(C)C)CC4)cn3)nc2n(C2CCCC2)c1=O (stereo not drawn) [Compound A30, N-((4-(6-((6-Acetyl-8-cyclopentyl-5-methyl-7-oxo-7,8-dihydropyrido[2,3-d]-pyrimidin-2-yl)amino)pyridin-3-yl)piperazin-1-yl)sulfonyl)-2-amino-3-methylbutanamide] | ≤ 200 nM | ≤ 1000 nM | ≤ 200 nM |
| CC(=O)c1c(C)c2cnc(Nc3ccc(N4CCN(S(=O)(=O)NC(=O)OCCNC(=O)[C@@H](N)CO)CC4)cn3)nc2n(C2CCCC2)c1=O [Compound A18, (S)-2-(2-Amino-3-hydroxypropanamido)ethyl ((4-(6-((6-acetyl-8-cyclopentyl-5-methyl-7-oxo-7,8-dihydropyrido[2,3-d]pyrimidin-2-yl)amino)pyridin-3-yl)piperazin-1-yl)-sulfonyl)carbamate] | ≤ 200 nM | > 10000 nM | ≤ 200 nM |

Further lines, results first:

| IC50 [1] | EC50 [2] | IC50 [3] | SMILES |
| --- | --- | --- | --- |
| ≤ 200 nM | ≤ 1000 nM | ≤ 200 nM | CC(=O)c1c(C)c2cnc(Nc3ccc(N4CCN(S(=O)(=O)NC(=O)[C@H]5CCCN5)CC4)cn3)nc2n(C2CCCC2)c1=O [Compound A33, (R)—N-((4-(6-((6-Acetyl-8-cyclopentyl-5-methyl-7-oxo-7,8-dihydropyrido[2,3-d]-pyrimidin-2-yl)amino)pyridin-3-yl)piperazin-1-yl)sulfonyl)pyrrolidine-2-carboxamide] |
| ≤ 200 nM | 1000 to 10000 nM | ≤ 200 nM | CC(=O)c1c(C)c2cnc(Nc3ccc(N4CCN(S(=O)(=O)N5CC(O)C5)CC4)cn3)nc2n(C2CCCC2)c1=O [Compound A52, 6-Acetyl-8-cyclopentyl-2-((5-(4-((3-hydroxyazetidin-1-yl)sulfonyl)piperazin-1-yl)pyridin-2-yl)amino)-5-methylpyrido[2,3-d]pyrimidin-7(8H)-one] |
| ≤ 200 nM | 1000 to 10000 nM | ≤ 200 nM | CC(=O)c1c(C)c2cnc(Nc3ccc(N4CCN(S(=O)(=O)N5CCCC[C@@H]5CO)CC4)cn3)nc2n(C2CCCC2)c1=O [Compound A7, (R)-6-acetyl-8-cyclopentyl-2-((5-(4-((2-(hydroxymethyl)piperidin-1-yl)sulfonyl)-piperazin-1-yl)pyridin-2-yl)amino)-5-methylpyrido[2,3-d]pyrimidin-7(8H)-one] |
| ≤ 200 nM | 1000 to 10000 nM | ≤ 200 nM | CC(=O)c1c(C)c2cnc(Nc3ccc(N4CCN(S(=O)(=O)N5CCOCC5)CC4)cn3)nc2n(C2CCCC2)c1=O [Compound A51, 6-Acetyl-8-cyclopentyl-5-methyl-2-((5-(4-(morpholinosulfonyl)piperazin-1-yl)-pyridin-2-yl)amino)pyrido[2,3-d]pyrimidin-7(8H)-one] |
